Holding throughout (assay type): biochemical
Test [1] has as its target T1, HDAC1 (Homo sapiens, UniProt Q13547).
T1 construct: purchased Enzo Life Sciences
The test can be described thus: HDAC Inhibition Screening Assay (FLUOR DE LYS Fluorimetric Drug Discovery Kit), HDAC1. The settings on record: for inhibition at 2 µM: 2 μM compound; for inhibition at 10 µM: 10 μM compound; for inhibition at 50 µM: 50 μM compound. Summed up:
(§1)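 Recombinant HDAC1, HDAC2 or HDAC3 was incubated with an acetyl-lysine fluorogenic substrate, and a developer was then added to release the fluorophore. Compounds were tested at 2, 10 and 50 μM, with fluorescence read at 360 or 485 nm excitation and 460 or 530 nm emission. Activity was expressed as a percentage of basal control minus baseline.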

In test [2] the target is T2, HDAC2 (Homo sapiens, UniProt Q92769).
T2 construct: purchased Enzo Life Sciences
T2 sequence (Q92769 whole entry): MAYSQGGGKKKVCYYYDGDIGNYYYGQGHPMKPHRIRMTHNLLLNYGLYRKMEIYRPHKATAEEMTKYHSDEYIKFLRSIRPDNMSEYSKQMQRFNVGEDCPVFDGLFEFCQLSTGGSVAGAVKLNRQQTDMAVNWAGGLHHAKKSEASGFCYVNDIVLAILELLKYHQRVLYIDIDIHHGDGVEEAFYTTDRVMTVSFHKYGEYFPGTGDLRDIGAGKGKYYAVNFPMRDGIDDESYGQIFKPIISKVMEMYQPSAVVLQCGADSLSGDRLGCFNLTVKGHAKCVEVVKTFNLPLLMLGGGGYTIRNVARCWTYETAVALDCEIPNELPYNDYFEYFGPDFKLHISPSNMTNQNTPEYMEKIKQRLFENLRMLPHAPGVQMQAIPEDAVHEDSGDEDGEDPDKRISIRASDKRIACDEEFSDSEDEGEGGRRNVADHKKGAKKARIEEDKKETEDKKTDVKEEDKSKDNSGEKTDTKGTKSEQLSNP
The test can be described thus: HDAC Inhibition Screening Assay (FLUOR DE LYS Fluorimetric Drug Discovery Kit), HDAC2. The settings on record: for inhibition at 2 µM: 2 μM compound; for inhibition at 10 µM: 10 μM compound; for inhibition at 50 µM: 50 μM compound. Summed up:
as §1

Test [3] has as its target T3, HDAC3 (Homo sapiens, UniProt O15379).
T3 construct: purchased Enzo Life Sciences
The test can be described thus: HDAC Inhibition Screening Assay (FLUOR DE LYS Fluorimetric Drug Discovery Kit), HDAC3. The settings on record: for inhibition at 2 µM: 2 μM compound; for inhibition at 10 µM: 10 μM compound; for inhibition at 50 µM: 50 μM compound. In outline:
as §1

The target in test [4] is T4, ATX (autotaxin) (Homo sapiens, UniProt Q13822).
T4 construct: purchased Cayman 10803
The test can be described thus: Autotaxin Inhibition Screening Assay (choline release from LPC, LPC-CR). As to conditions: for inhibition at 4 µM: 4 μM compound; for inhibition at 20 µM: 20 μM compound; for inhibition at 50 µM: 50 μM compound. In outline:
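20 ng ATX incubated with 100 μM 14:0 LPC in 50 mM Tris pH 8.0, 0.01% Triton X-100, 50 mM CaCl2, with choline oxidase/HRP/2 mM HVA coupling; compounds at 4, 20 and 50 μM. HVA fluorescence (ex/em 320/450 nm) read every 60 s for 90 min; inhibition % from slopes corrected for blank versus vehicle.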

T1 sequence (Q13547 whole entry): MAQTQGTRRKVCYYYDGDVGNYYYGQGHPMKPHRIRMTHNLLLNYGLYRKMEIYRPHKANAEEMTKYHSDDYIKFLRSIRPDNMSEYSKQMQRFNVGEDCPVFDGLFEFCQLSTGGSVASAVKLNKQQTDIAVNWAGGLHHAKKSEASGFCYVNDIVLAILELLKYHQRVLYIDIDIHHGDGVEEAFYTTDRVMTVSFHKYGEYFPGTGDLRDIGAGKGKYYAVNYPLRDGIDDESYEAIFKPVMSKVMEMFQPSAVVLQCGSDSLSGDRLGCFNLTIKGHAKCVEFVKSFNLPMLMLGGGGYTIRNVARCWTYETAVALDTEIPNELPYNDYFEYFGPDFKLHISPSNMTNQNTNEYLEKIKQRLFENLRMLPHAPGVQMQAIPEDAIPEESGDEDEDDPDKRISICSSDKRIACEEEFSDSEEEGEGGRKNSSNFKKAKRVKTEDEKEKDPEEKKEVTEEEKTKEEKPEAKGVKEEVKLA
T3 sequence (O15379 whole entry): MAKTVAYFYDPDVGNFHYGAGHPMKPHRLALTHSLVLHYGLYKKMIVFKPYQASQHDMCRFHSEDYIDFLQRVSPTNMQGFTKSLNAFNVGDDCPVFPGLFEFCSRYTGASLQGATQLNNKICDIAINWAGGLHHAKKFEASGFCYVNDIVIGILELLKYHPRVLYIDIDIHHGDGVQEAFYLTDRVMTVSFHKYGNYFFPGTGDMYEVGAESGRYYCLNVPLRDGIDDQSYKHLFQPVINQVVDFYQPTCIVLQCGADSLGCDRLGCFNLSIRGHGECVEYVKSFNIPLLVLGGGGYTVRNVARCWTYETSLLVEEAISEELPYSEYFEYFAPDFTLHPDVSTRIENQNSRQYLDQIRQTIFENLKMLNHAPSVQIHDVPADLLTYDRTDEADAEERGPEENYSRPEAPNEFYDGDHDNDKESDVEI
T3 sequence (O75376 395-489 partner limits assumed): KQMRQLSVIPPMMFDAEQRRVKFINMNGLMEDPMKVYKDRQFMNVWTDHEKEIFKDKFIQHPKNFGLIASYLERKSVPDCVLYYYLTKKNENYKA

On to `Nc1cc(F)ccc1NC(=O)CCCCCCC(=O)Nc1ccc2c(c1)CC/C(=C\c1cc(C(F)(F)F)cc(C(F)(F)F)c1)C2=O` [Compound 5, (E)-N1-(2-amino-4-fluorophenyl)-N8-(6-(3,5-bis(trifluoromethyl)benzylidene)-5-oxo-5,6,7,8-tetrahydronaphthalen-2-yl)octanediamide], for which, in test [1], the inhibition at 2 µM is under 50%, the inhibition at 10 µM is under 50% and the inhibition at 50 µM was under 50%. In test [2], the inhibition at 2 µM is under 50%, the inhibition at 10 µM was under 50% and the inhibition at 50 µM is under 50%. Besides, in test [3], the inhibition at 2 µM was under 50%, the inhibition at 10 µM was under 50% and the inhibition at 50 µM was under 50%. In test [4], this compound yielded an inhibition at 4 µM of 50 to 80%, an inhibition at 20 µM of 50 to 80% and an inhibition at 50 µM of 50 to 80%.
As for `Cc1ccc(S(=O)(=O)NC2CCc3cc(/C=C/C(=O)NO)ccc32)cc1` (stereo not drawn) [Compound 16, (E)-N-hydroxy-3-(1-((4-methylphenyl)sulfonamido)-2,3-dihydro-1H-inden-5-yl)acrylamide], in test [1], the inhibition at 2 µM is over 80%, the inhibition at 10 µM was over 80% and the inhibition at 50 µM was over 80%. In addition, in test [2], the inhibition at 2 µM is over 80%, the inhibition at 10 µM was over 80% and the inhibition at 50 µM was over 80%. In test [3], the inhibition at 2 µM is over 80%, the inhibition at 10 µM is over 80% and the inhibition at 50 µM was over 80%. In test [4], this compound registered an inhibition at 4 µM of under 50%, an inhibition at 20 µM of under 50% and an inhibition at 50 µM of under 50%.
For the compound `O=C(/C=C/c1ccc2c(c1)CCC2NCCC(=O)Nc1cc(C(F)(F)F)cc(C(F)(F)F)c1)NO` (stereo not drawn) [Compound 50, (E)-3-(1-((3-((3,5-bis(trifluoromethyl)phenyl)amino)-3-oxopropyl)amino)-2,3-dihydro-1H-inden-5-yl)-N-hydroxyacrylamide], in test [1], the inhibition at 2 µM is over 80%, the inhibition at 10 µM was over 80% and the inhibition at 50 µM is over 80%. In addition, in test [2], the inhibition at 2 µM is over 80%, the inhibition at 10 µM was over 80% and the inhibition at 50 µM was over 80%. In addition, in test [3], the inhibition at 2 µM is over 80%, the inhibition at 10 µM is over 80% and the inhibition at 50 µM was over 80%. In test [4], this compound displayed an inhibition at 4 µM of under 50%, an inhibition at 20 µM of under 50% and an inhibition at 50 µM of under 50%.
Regarding `O=C(/C=C/c1ccc2c(c1)CCC2OCc1cc(C(F)(F)F)cc(C(F)(F)F)c1)NO` (stereo not drawn) [Compound 34, (E)-3-(1-((3,5-bis(trifluoromethyl)benzyl)oxy)-2,3-dihydro-1H-inden-5-yl)-N-hydroxyacrylamide], in test [1], the inhibition at 2 µM is under 50%, the inhibition at 10 µM is over 80% and the inhibition at 50 µM was over 80%. In test [2], the inhibition at 2 µM lay in the range of 50 to 80%, the inhibition at 10 µM was over 80% and the inhibition at 50 µM was over 80%. Besides, in test [3], the inhibition at 2 µM is under 50%, the inhibition at 10 µM was 50 to 80% and the inhibition at 50 µM was over 80%. In test [4], this compound yielded an inhibition at 4 µM of under 50%, an inhibition at 20 µM of under 50% and an inhibition at 50 µM of under 50%.
`O=C(/C=C/c1ccc2c(c1)CCC2NC(=O)c1cc(C(F)(F)F)cc(C(F)(F)F)c1)NO` (stereo not drawn) [Compound 22, (E)-N-(5-(3-(hydroxyamino)-3-oxoprop-1-en-1-yl)-2,3-dihydro-1H-inden-1-yl)-3,5-bis(trifluoromethyl)benzamide]: in test [1], the inhibition at 2 µM fell in the range of 50 to 80%, the inhibition at 10 µM is over 80% and the inhibition at 50 µM was over 80%. For the same compound, in test [2], the inhibition at 2 µM was 50 to 80%, the inhibition at 10 µM is over 80% and the inhibition at 50 µM was over 80%. Besides, in test [3], the inhibition at 2 µM lay in the range of 50 to 80%, the inhibition at 10 µM is over 80% and the inhibition at 50 µM was over 80%. In addition, in test [4], the inhibition at 4 µM is under 50%, the inhibition at 20 µM is under 50% and the inhibition at 50 µM was under 50%.
Consider `CCN(CC)c1ccc(C(=O)NC2CCc3cc(/C=C/C(=O)NO)ccc32)cc1` (stereo not drawn) [Compound 28, (E)-4-(diethylamino)-N-(5-(3-(hydroxyamino)-3-oxoprop-1-en-1-yl)-2,3-dihydro-1H-inden-1-yl)benzamide], for which, in test [1], the inhibition at 2 µM was over 80%, the inhibition at 10 µM was over 80% and the inhibition at 50 µM is over 80%. Moreover, in test [2], the inhibition at 2 µM was over 80%, the inhibition at 10 µM is over 80% and the inhibition at 50 µM was over 80%. For the same compound, in test [3], the inhibition at 2 µM is over 80%, the inhibition at 10 µM was over 80% and the inhibition at 50 µM was over 80%. Moreover, in test [4], the inhibition at 4 µM is under 50%, the inhibition at 20 µM was under 50% and the inhibition at 50 µM was under 50%.
`O=C(/C=C/c1ccc2c(c1)CCC2NC(=O)CCCCCCC(=O)NO)Nc1cc(Cl)cc(Cl)c1` (stereo not drawn) [Compound 42, (E)-N^1-(5-(3-((3,5-dichlorophenyl)amino)-3-oxoprop-1-en-1-yl)-2,3-dihydro-1H-inden-1-yl)-N^8-hydroxyoctanediamide]: in test [1], the inhibition at 2 µM is under 50%, the inhibition at 10 µM lay in the range of 50 to 80% and the inhibition at 50 µM is over 80%. Also, in test [2], the inhibition at 2 µM fell in the range of 50 to 80%, the inhibition at 10 µM lay in the range of 50 to 80% and the inhibition at 50 µM is over 80%. In test [3], the inhibition at 2 µM lay in the range of 50 to 80%, the inhibition at 10 µM is over 80% and the inhibition at 50 µM was in the range of 50 to 80%. In test [4], the inhibition at 4 µM was under 50%, the inhibition at 20 µM was under 50% and the inhibition at 50 µM was over 80%.
Take `O=C(/C=C/c1ccc2c(c1)CC/C(=C\c1cc(C(F)(F)F)cc(C(F)(F)F)c1)C2=O)NO` [Compound 7, (E)-3-(6-((E)-3,5-bis(trifluoromethyl)benzylidene)-5-oxo-5,6,7,8-tetrahydronaphthalen-2-yl)-N-hydroxyacrylamide]: in test [1], the inhibition at 2 µM was under 50%, the inhibition at 10 µM is under 50% and the inhibition at 50 µM lay in the range of 50 to 80%. In addition, in test [2], the inhibition at 2 µM was under 50%, the inhibition at 10 µM was under 50% and the inhibition at 50 µM was 50 to 80%. Besides, in test [3], the inhibition at 2 µM is under 50%, the inhibition at 10 µM was under 50% and the inhibition at 50 µM lay in the range of 50 to 80%. In test [4], this compound gave an inhibition at 4 µM of under 50%, an inhibition at 20 µM of 50 to 80% and an inhibition at 50 µM of 50 to 80%.
In the case of `Nc1cc(F)ccc1NC(=O)CCCCC(=O)Nc1ccc2c(c1)CC/C(=C\c1cc(C(F)(F)F)cc(C(F)(F)F)c1)C2=O` [Compound 13, (E)-N1-(2-amino-4-fluorophenyl)-N6-(6-(3,5-bis(trifluoromethyl)benzylidene)-5-oxo-5,6,7,8-tetrahydronaphthalen-2-yl)adipamide], in test [1], the inhibition at 2 µM was under 50%, the inhibition at 10 µM is under 50% and the inhibition at 50 µM was under 50%. Further, in test [2], the inhibition at 2 µM was under 50%, the inhibition at 10 µM was under 50% and the inhibition at 50 µM is under 50%. Besides, in test [3], the inhibition at 2 µM is under 50%, the inhibition at 10 µM is under 50% and the inhibition at 50 µM is under 50%. In test [4], this compound returned an inhibition at 4 µM of 50 to 80%, an inhibition at 20 µM of 50 to 80% and an inhibition at 50 µM of 50 to 80%.
In the case of `O=C(/C=C/c1ccc2c(c1)CCC2NCCc1cc(C(F)(F)F)cc(C(F)(F)F)c1)NO` (stereo not drawn) [Compound 54, (E)-3-(1-((3,5-bis(trifluoromethyl)phenethyl)amino)-2,3-dihydro-1H-inden-5-yl)-N-hydroxyacrylamide], in test [1], the inhibition at 2 µM was over 80%, the inhibition at 10 µM was over 80% and the inhibition at 50 µM is over 80%. Also, in test [2], the inhibition at 2 µM was over 80%, the inhibition at 10 µM was over 80% and the inhibition at 50 µM was over 80%. In test [3], the inhibition at 2 µM was over 80%, the inhibition at 10 µM was over 80% and the inhibition at 50 µM is over 80%. In test [4], this compound registered an inhibition at 4 µM of under 50%, an inhibition at 20 µM of under 50% and an inhibition at 50 µM of under 50%.
With `Nc1cc(F)ccc1NC(=O)c1ccc(COc2ccc3c(c2)CCC(Cc2cc(C(F)(F)F)cc(C(F)(F)F)c2)C3=O)cc1` (stereo not drawn) [Compound 67, N-(2-amino-4-fluorophenyl)-4-(((6-(3,5-bis(trifluoromethyl)benzyl)-5-oxo-5,6,7,8-tetrahydronaphthalen-2-yl)oxy)methyl)benzamide], in test [1], the inhibition at 2 µM was under 50%, the inhibition at 10 µM is under 50% and the inhibition at 50 µM is under 50%. Also, in test [2], the inhibition at 2 µM was under 50%, the inhibition at 10 µM is under 50% and the inhibition at 50 µM was under 50%. Also, in test [3], the inhibition at 2 µM was under 50%, the inhibition at 10 µM is under 50% and the inhibition at 50 µM is under 50%. In addition, in test [4], the inhibition at 4 µM is under 50%, the inhibition at 20 µM was under 50% and the inhibition at 50 µM is under 50%.

These data come from patent publication US12162820B2 (TAIWANJ PHARMACEUTICALS CO., LTD., priority 2019, dated 2024).
